Source: PubChem BioAssay (NCI)
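Dose response: 5 concentrations. Exposure: 48 h. Format: 96-well plates. Endpoint: linear interpolation; highest concentration if not reached. At the TGI there is no net growth.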

Legend:
Assay in all cases: NCI-60 cell line screen, 48 h
786-0 renal = test system: 786-0 renal
A498 renal = test system: A498 renal
A549 NSCLC = test system: A549 NSCLC
ACHN renal = test system: ACHN renal
CAKI-1 renal = test system: CAKI-1 renal
CCRF-CEM leukemia = test system: CCRF-CEM leukemia
COLO 205 colon = test system: COLO 205 colon
DLD-1 colon = test system: DLD-1 colon
DMS 114 small cell lung = test system: DMS 114 small cell lung
DMS 273 small cell lung = test system: DMS 273 small cell lung
EKVX NSCLC = test system: EKVX NSCLC
HCT-116 colon = test system: HCT-116 colon
HCT-15 colon = test system: HCT-15 colon
HL-60(TB) leukemia = test system: HL-60(TB) leukemia
HOP-18 NSCLC = test system: HOP-18 NSCLC
HOP-62 NSCLC = test system: HOP-62 NSCLC
HOP-92 NSCLC = test system: HOP-92 NSCLC
HT29 colon = test system: HT29 colon
IGROV1 ovarian = test system: IGROV1 ovarian
K-562 leukemia = test system: K-562 leukemia
KM12 colon = test system: KM12 colon
KM20L2 colon = test system: KM20L2 colon
LOX IMVI melanoma = test system: LOX IMVI melanoma
LXFL 529 NSCLC = test system: LXFL 529 NSCLC
M14 melanoma = test system: M14 melanoma
M19-MEL melanoma = test system: M19-MEL melanoma
MALME-3M melanoma = test system: MALME-3M melanoma
MOLT-4 leukemia = test system: MOLT-4 leukemia
NCI-H226 lung = test system: NCI-H226 lung
NCI-H23 lung = test system: NCI-H23 lung
NCI-H460 lung = test system: NCI-H460 lung
NCI-H522 lung = test system: NCI-H522 lung
OVCAR-3 ovarian = test system: OVCAR-3 ovarian
OVCAR-4 ovarian = test system: OVCAR-4 ovarian
OVCAR-5 ovarian = test system: OVCAR-5 ovarian
OVCAR-8 ovarian = test system: OVCAR-8 ovarian
RPMI-8226 leukemia = test system: RPMI-8226 leukemia
RXF 393 renal = test system: RXF 393 renal
SF-268 CNS = test system: SF-268 CNS
SF-295 CNS = test system: SF-295 CNS
SF-539 CNS = test system: SF-539 CNS
SK-MEL-28 melanoma = test system: SK-MEL-28 melanoma
SK-MEL-5 melanoma = test system: SK-MEL-5 melanoma
SN12C renal = test system: SN12C renal
SNB-19 CNS = test system: SNB-19 CNS
SNB-75 CNS = test system: SNB-75 CNS
SNB-78 CNS = test system: SNB-78 CNS
SW-620 colon = test system: SW-620 colon
TK-10 renal = test system: TK-10 renal
U251 CNS = test system: U251 CNS
UACC-257 melanoma = test system: UACC-257 melanoma
UACC-62 melanoma = test system: UACC-62 melanoma
UO-31 renal = test system: UO-31 renal
XF 498 CNS = test system: XF 498 CNS

Measured: TGI

COc1cc(/C=C/c2cccnc2)cc(OC)c1OC
> 100 µM: all assays above
